Source: patent US6962921B2, “Dementia remedies containing 2-aryl-8-oxodihydropurine derivatives as the active ingredient” (Dainippon Pharmaceutical Co., Ltd., priority 2000, dated 2005)

Assays:
[1] = system: scopolamine-induced spatial memory disorder; assay: Ameliorating effect on spatial memory disorder induced by scopolamine (Y-maze, alternation behavior); assay type: in vivo; details: Std-ddY male mice, oral, 1 hour before scopolamine 0.6 mg/kg s.c., 5% significance level
Description: Experiment 1: Ameliorating Effect on Spatial Memory Disorder Induced by Scopolamine. The spatial memory test using Y-maze apparatus is a test to utilize the behavioral property of animals to enter into a new arm, avoiding the arm that they entered into just before (alternation behavior). This method is often used in order to study spatial working memory. This experiment was carried out according to the method of Itoh, J., et al. [Eur. J. Pharmacol., 236, 341-345 (1993)]. Std-ddY male mice weighing 25-30 g (8 mice per one group) were used in the experiment. A solution of scopolamine in physiological saline (concentration: 0.06 mg/ml) was subcutaneously administered to mice in a volume of 0.1 ml/10 g of body weight, i.e., 0.6 mg/kg. Mice in the test compound group were orally treated with the test compound suspended in 0.5% tragacanth solution in a volume of 0.1 ml/10 g of body weight 1 hour before scopolamine administration, while animals in the amnesia control group and the vehicle control group received a 0.5% tragacanth solution in the same manner as above. However, the vehicle control group was injected with physiological saline instead of scopolamine. Thirty minutes after administration of scopolamine, the mice were placed at the end of the arm A of the Y-maze apparatus which was composed of three black acrylic trapezoid arms (bottom width: 3 cm, height of side wall: 12 cm, width of opened ceiling: 10 cm, length: 40 cm), wherein said three arms were connected at the one end of each arm to form Y-shape and another ends were closed, and the three arms were differentiated by the names as A, B and C respectively, and allowed to search freely the maze for 8 minutes. When the mouse was checked to enter into an arm at the length of not less than 10 cm from the entrance of the arm, the name of the arm (A, B or C) was recorded. It could be defined as a correct choice when the mouse selected the different three arms sequentially, and the number of alternation behavior i.e., the number of correct choices was counted. In the case that the total number of arm entries was less than 10 [the maximum number of alternation behavior (the number obtained by subtracting 2 from the total number of arm entries) is less than 8], the resulting data were not used and the retest was carried out instead, because the ability of learning could not occasionally reflect the alternation behavior. For the final data gotten, the ratio of the number of the alternation behavior to that of the entries (obtained by subtracting 2 from the total number of arm entries) was estimated as the rate of alternation behavior. In statistical analysis, the rate of alternation behavior in the amnesia control group was compared with that in the vehicle control group by the nonparametric Wilcoxon rank sum test and it was checked if a significant amnesia was induced in the amnesia control group. Next, the efficacy of the test compounds was evaluated in comparison between the amnesia control group and the test compound group by the nonparametric Dunnett multiple comparison test. The statistical calculation was carried out with SAS system Version 6.12 (SAS Institute Japan Ltd.).

[2] = system: scopolamine-induced object memory impairment; assay: Ameliorating effect on object memory disorder induced by scopolamine (object recognition test); assay type: in vivo; details: Std-ddY male mice, oral; for MED (minimum effective dose), significant difference in the discrimination index, scopolamine-induced object memory impairment: 30 minutes before scopolamine 0.4 mg/kg s.c., 5% significance level
Description: Experiment 2: Ameliorating Effect on Object Memory Disorder Induced by Scopolamine. The object recognition test is a test method using the property which animals like to search a novel object. This method is often used in order to study the memorization and retention of episodic memory. This experiment was carried out according to the partially modified method of Bartolini, L. et al. [Pharmacol. Biochem. Behav., 53, 277-283 (1996)]. Std-ddY male mice weighing 25-30 g (six mice per one group) were used in the experiment. Scopolamine dissolved in physiological saline (concentration: 0.04 mg/ml) was subcutaneously administered to mice in a volume of 0.1 ml per 10 g of body weight, i.e., 0.4 mg/kg. For the test compound group, the test compound suspended in 0.5% tragacanth solution was orally administered in a volume of 0.1 ml per 10 g of body weight, 30 minutes before scopolamine administration, and for the amnesia control group and the vehicle control group, a 0.5% tragacanth solution was administered in the same manner as above. However, for the vehicle control group, physiological saline was administered instead of scopolamine. Thirty minutes after the administration of scopolamine, the first trial was carried out for 5 minutes, and 1 hour after the first trial, the second trial was carried out for 5 minutes. In the first trial, the two same-shaped objects [red frustum-formed funnel adaptors made of silicon (bottom diameter: 6.1 cm, ceiling diameter: 4.5 cm, height: 3.5 cm)] are put on the two adjacent corners of the test box made of brown acrylic (length: 22.5 cm, width: 24.5 cm, height: 11 cm), and the time that the mouse explored each object was measured. In the second trial, the object (familiar: F) which the exploration time was longer in the first trial was retained, while another object in the first trial was replaced by the novel object [novel: N, red diver ring (outside diameter: 7.5 cm, inside diameter: 2.5 cm, thickness: 2.0 cm)] at the same position, and then the time for exploring each object was measured. The rate of object memory impairment was obtained from the formula: (N−F)/(N+F) as a discrimination index, and the comparison between the vehicle control group and the amnesia control group, and between the amnesia control group and the test compound group was carried out on the basis of said discrimination index. In statistical analysis, the comparison between the vehicle control group and the amnesia control group was carried out by the Student's t test and it was checked whether a significant amnesia was induced. The efficacy of the test compounds was evaluated on the basis of comparison between the amnesia control group and the test compound group by the parametric Dunnett's multiple comparison test. […]

[3] = system: MK-801-induced object location memory impairment; assay: Ameliorating effect on the impairment of object location memory induced by MK-801 (object location memory test); assay type: in vivo, mice; details: oral; for effective dose relative to the dose of FGIN-1-27: MK-801-induced object location memory impairment, mice; for MED (minimum effective dose), significant ameliorating effect on MK-801-induced object location memory impairment: Std-ddY male mice, 30 minutes before MK-801 0.05 mg/kg s.c., 5% significance level
Excerpt: Experiment 3: Ameliorating Effect on the Impairment of Object Location Memory Induced by MK-801.
The object location memory test is a test method using the property which animals like to search a novelty caused by the change of an object location. This method is often used in order to study the ability of object location memory. This method is closely related with hypofunction of glutamatergic system and cause the location memory impairment selectively without the impairment of object memory which is induced by hypofunction of cholinergic system.
This experiment was carried out according to the partially modified method of Sophie L. Dix, et al. [Behav. Brain Res., 99, 191-200 (1999)].
Std-ddY male mice weighing 25-30 g (six mice per one group) were used in the experiment. A solution of MK-801 in physiological saline (concentration: 0.005 mg/ml) was subcutaneously administered in a volume of 0.1 ml per 10 g of body weight, i.e., 0.05 mg/kg. For the test compound group, the test compound suspended in 0.5% tragacanth solution was orally administered in a volume of 0.1 ml per 10 g of body weight, 30 minutes before MK-801 administration, and for the amnesia control group and the vehicle control group, a 0.5% tragacanth solution was administered in the same manner as above. However, for the vehicle control group, physiological saline was administered instead of MK-801. Thirty minutes after the administration of MK-801, the first trial was carried out for 5 minutes, and 1 hour after the first trial, the second trial was carried out for 5 minutes. In the first trial, the two same-shaped objects [red frustum-formed funnel adaptors made of silicon (bottom diameter: 6.1 cm, ceiling diameter: 4.5 cm, height: 3.5 cm)] were respectively put in the center and one of the corners of the test box made of brown acrylic (length: 22.5 cm, width 24.5 cm, height: 11 cm), and the time which the mouse explored each object was measured. In the second trial, the object (displaced object: DO) which was located in the center in the first trial was displaced in the opposite corner to another object (non displaced object: NDO), and then the time which the mouse explored each object was measured. The difference in the exploration time of DO and NDO respectively between the first trial and the second trial was calculated, and the comparison between the vehicle control group and the amnesia control group, and between the amnesia control group and the test compound group was carried out.
In statistical analysis, the comparison between the vehicle control group and the amnesia control group was carried out by the Student's t test and it was confirmed whether a significant object location memory impairment was induced. The efficacy of the test compounds was evaluated by comparing the amnesia control group with the test compound group using the parametric Dunnett's multiple comparison test. The statistical calculation was carried out with SAS system Version 6.12 (SAS Institute Japan Ltd.).
Besides, in the vehicle control group, the exploration time for NDO in the second trial decreased and the exploration time for DO was obviously longer than that for NDO. […] On the other hand, in the amnesia control group with MK-801, both exploration time for NDO and DO decreased remarkably.

[4] = system: animal models of learning impairment; details: active avoidance test, radial-arm maze test, water maze test; cited from earlier work
Std-ddY male mice = assay: Acute toxicity (Experiment 4); assay type: in vivo; details: oral 2000 mg/kg, observed for 7 days
Description: Experiment 4: Acute Toxicity
The experiment on the test compound C was carried out using Std-ddY male mice weighing 25-30 g (10 mice per each group).

Compound	MED (minimum effective dose), significant ameliorating effect on scopolamine-induced spatial memory disorder in the rate of alternation behavior [1] [mg/kg]	MED (minimum effective dose), significant difference in the discrimination index, scopolamine-induced object memory impairment [2] [mg/kg]	MED (minimum effective dose), significant ameliorating effect on MK-801-induced object location memory impairment [3] [mg/kg]	ameliorating effects in animal models of learning impairment [4]	other results
CCN(Cc1ccccc1)C(=O)Cn1c(=O)n(C)c2nc(-c3ccccc3)ncc21 [Test Compound B, N-benzyl-N-ethyl-8,9-dihydro-9-methyl-8-oxo-2-phenyl-7H-purin-7-acetamide]	3	–	–	–	–
COc1ccc(N(C)C(=O)Cn2c(=O)n(C)c3cnc(-c4ccccc4)nc32)cc1 [Test Compound A, N-(4-methoxyphenyl)-7,8-dihydro-7-methyl-N-methyl-8-oxo-2-phenyl-9H-purin-9-acetamide]	3	–	–	–	–
CCN(Cc1ccccc1)C(=O)Cn1c(=O)n(C)c2cnc(-c3ccccc3)nc21 [Test Compound E, N-benzyl-N-ethyl-7,8-dihydro-7-methyl-8-oxo-2-phenyl-9H-purin-9-acetamide]	1	0.1	0.01	–	effective dose relative to the dose of FGIN-1-27 [3]: less than 1/100
CCCCCCN(CCCCCC)C(=O)Cc1c(-c2ccc(F)cc2)[nH]c2ccccc12 [FGIN-1-27, N,N-di-n-hexyl-2-(4-fluorophenyl)indol-3-acetamide, reference compound]	10	>30	10	weak ameliorating effects	ameliorating effect on scopolamine-induced object memory impairment at a stated dose ([2]; dose of 30 mg/kg): no significant ameliorating effect
pregnenolone sulfate	–	–	–	weak ameliorating effects	–
CC(=O)[C@H]1CC[C@H]2[C@@H]3CC[C@H]4C[C@H](O)CC[C@]4(C)[C@H]3CC[C@]12C [allopregnanolone]	–	–	–	weak ameliorating effects	–
CCN(Cc1ccccc1)C(=O)Cn1c(=O)n(CC)c2cnc(-c3ccccc3)nc21 [Test Compound D, N-benzyl-7-ethyl-N-ethyl-7,8-dihydro-8-oxo-2-phenyl-9H-purin-9-acetamide]	3	–	–	–	–
CCN(C(=O)Cn1c(=O)n(C)c2nc(-c3ccccc3)ncc21)c1ccccc1 [Test Compound C, N-ethyl-8,9-dihydro-9-methyl-8-oxo-2-phenyl-N-phenyl-7H-purin-7-acetamide]	0.01	0.01	0.1	–	effective dose relative to the dose of FGIN-1-27 [3]: less than 1/100; lethality (Std-ddY male mice): no mouse treated with the test compound C died
